In patent US11596692B1 (Incyte Corporation, priority 2018, dated 2023):
Like-named read-outs stand apart in the source and are kept apart here.

Tested on: IRF3
Assay: IRF3 activation assay in THP-1 Dual cells
Assay type: cell-based
Details: Homo sapiens, read-out: THP1 IRF3 EC50
Experimental: THP-1 Dual Cells (Invivogen) were maintained in RPMI1640 medium with addition of 10% FBS, 100 μg/ml zeocin, 10 μg/ml blasticidin. Cells were added in a 96-well flat bottom assay plate at 100,000 per well in 100 μL complete RPMI medium. Test compounds were prepared by serial dilution in complete RPMI medium and 100 μL test compounds were transferred to each corresponding well. The assay plate was incubated at 37° C., 5% CO2 for 24 hours. After the overnight incubation, 20 μL of the culture supernatants were collected, followed by addition of 180 μL of QUANTI-Blue (Invivogen) to assess IRF3 activity. The amount of IRF3 activation was assessed by reading the absorbance at 620-655 nm with a microplate reader 2 hours later. The culture supernatant from the untreated THP-1 cells was used as the negative control. EC50 determination was performed by fitting the curve of percent control activity versus the log of the compound concentration using the GraphPad Prism 6.0 software.

With `CCn1nc(C)cc1C(=O)Nc1nc2cc(C(N)=O)cc(OCCCO)c2n1C/C=C/Cn1c2ccc(C(N)=O)cc2c2cnc(-c3cc(C)nn3CC)nc21` [Example S18, (E)-9-(4-(5-carbamoyl-2-(1-ethyl-3-methyl-1H-pyrazole-5-carboxamido)-7-(3-hydroxypropoxy)-1H-benzo[d]imidazol-1-yl)but-2-en-1-yl)-2-(1-ethyl-3-methyl-1H-pyrazol-5-yl)-9H-pyrimido[4,5-b]indole-6-carboxamide] the EC50 (THP-1, Table 4A) was at most 100 nM, the EC50 (THP-1, Table 4B) was under 200 nM and the EC50 (THP-1, Table 4C) was at most 50 nM.

With `CCn1nc(C)cc1C(=O)Nc1nc2cc(C(N)=O)cc(OCCCOC(=O)c3cc(C)nn3CC)c2n1C/C=C/Cn1c2nc(-c3cc(C)nn3CC)ncc2c2cc(C(N)=O)cc(OCCCN3CCOCC3)c21` [Example S19, (E)-3-((5-carbamoyl-1-(4-(6-carbamoyl-2-(1-ethyl-3-methyl-1H-pyrazol-5-yl)-8-(3-morpholinopropoxy)-9H-pyrimido[4,5-b]indol-9-yl)but-2-en-1-yl)-2-(1-ethyl-3-methyl-1H-pyrazole-5-carboxamido)-1H-benzo[d]imidazol-7-yl)oxy)propyl 1-ethyl-3-methyl-1H-pyrazole-5-carboxylate] the EC50 (THP-1, Table 4A) was at most 100 nM, the EC50 (THP-1, Table 4B) was under 200 nM and the EC50 (THP-1, Table 4C) was at most 50 nM.

`CCn1nc(C)cc1C(=O)Nc1nc2cc(C(N)=O)cc(OCCCO)c2n1C/C=C/Cn1c2nc(-c3cc(C)nn3CC)ncc2c2cc(C(N)=O)cc(OCCCN3CCOCC3)c21` [Example S20, (E)-9-(4-(5-carbamoyl-2-(1-ethyl-3-methyl-1H-pyrazole-5-carboxamido)-7-(3-hydroxypropoxy)-1H-benzo[d]imidazol-1-yl)but-2-en-1-yl)-2-(1-ethyl-3-methyl-1H-pyrazol-5-yl)-8-(3-morpholinopropoxy)-9H-pyrimido[4,5-b]indole-6-carboxamide] was tested, and the EC50 (THP-1, Table 4A) was at most 100 nM, the EC50 (THP-1, Table 4B) was under 200 nM and the EC50 (THP-1, Table 4C) was at most 50 nM.

Compound `CCn1nc(C)cc1C(=O)Nc1nc2cc(C(N)=O)cc(OCCCOC(=O)c3cc(C)nn3CC)c2n1C/C=C/Cn1c2nc(-c3cc(C)nn3CC)ncc2c2cc(C(N)=O)cc(OCCCOC)c21` [Example S21, (E)-3-((5-carbamoyl-1-(4-(6-carbamoyl-2-(1-ethyl-3-methyl-1H-pyrazol-5-yl)-8-(3-methoxypropoxy)-9H-pyrimido[4,5-b]indol-9-yl)but-2-en-1-yl)-2-(1-ethyl-3-methyl-1H-pyrazole-5-carboxamido)-1H-benzo[d]imidazol-7-yl)oxy)propyl 1-ethyl-3-methyl-1H-pyrazole-5-carboxylate] has an EC50 (THP-1, Table 4A) of at most 100 nM, an EC50 (THP-1, Table 4B) of under 200 nM and an EC50 (THP-1, Table 4C) of at most 50 nM.

Work on `CCn1nc(C)cc1C(=O)Nc1nc2cc(C(N)=O)cc(OCCCO)c2n1C/C=C/Cn1c2nc(-c3cc(C)nn3CC)ncc2c2cc(C(N)=O)cc(OCCCOC)c21` [Example S22, (E)-9-(4-(5-carbamoyl-2-(1-ethyl-3-methyl-1H-pyrazole-5-carboxamido)-7-(3-hydroxypropoxy)-1H-benzo[d]imidazol-1-yl)but-2-en-1-yl)-2-(1-ethyl-3-methyl-1H-pyrazol-5-yl)-8-(3-methoxypropoxy)-9H-pyrimido[4,5-b]indole-6-carboxamide] yielded an EC50 (THP-1, Table 4A) of at most 100 nM, an EC50 (THP-1, Table 4B) of under 200 nM and an EC50 (THP-1, Table 4C) of at most 50 nM.

For `CCn1nc(C)cc1C(=O)Nc1nc2cc(C(N)=O)cc(C)c2n1C/C=C/Cn1c2ccc(C(N)=O)cc2c2cnc(-c3cc(C)nn3CC)c(F)c21` [Example S23, (E)-5-(4-(5-carbamoyl-2-(1-ethyl-3-methyl-1H-pyrazole-5-carboxamido)-7-methyl-1H-benzo[d]imidazol-1-yl)but-2-en-1-yl)-3-(1-ethyl-3-methyl-1H-pyrazol-5-yl)-4-fluoro-5H-pyrido[4,3-b]indole-8-carboxamide], the EC50 (THP-1, Table 4A) was 100 to 500 nM, the EC50 (THP-1, Table 4B) was under 200 nM and the EC50 (THP-1, Table 4C) was 50 to 200 nM.

Work on `CCn1nc(C)cc1C(=O)Nc1nc2cc(C(N)=O)cc(C)c2n1C/C=C/Cn1c2ccc(C(N)=O)cc2c2cc(F)c(-c3cc(C)nn3CC)nc21` [Example S24, (E)-9-(4-(5-carbamoyl-2-(1-ethyl-3-methyl-1H-pyrazole-5-carboxamido)-7-methyl-1H-benzo[d]imidazol-1-yl)but-2-en-1-yl)-2-(1-ethyl-3-methyl-1H-pyrazol-5-yl)-3-fluoro-9H-pyrido[2,3-b]indole-6-carboxamide] yielded an EC50 (THP-1, Table 4A) of at most 100 nM, an EC50 (THP-1, Table 4B) of under 200 nM and an EC50 (THP-1, Table 4C) of at most 50 nM.

Work on `CCn1nc(C)cc1C(=O)Nc1nc2cc(C(N)=O)cc(C)c2n1C/C=C/Cn1c2ccc(C(N)=O)cc2c2cc(C#N)c(-c3cc(C)nn3CC)nc21` [Example S25, (E)-9-(4-(5-carbamoyl-2-(1-ethyl-3-methyl-1H-pyrazole-5-carboxamido)-7-methyl-1H-benzo[d]imidazol-1-yl)but-2-en-1-yl)-3-cyano-2-(1-ethyl-3-methyl-1H-pyrazol-5-yl)-9H-pyrido[2,3-b]indole-6-carboxamide] yielded an EC50 (THP-1, Table 4A) of 100 to 500 nM, an EC50 (THP-1, Table 4B) of under 1000 nM and an EC50 (THP-1, Table 4C) of 200 to 500 nM.

`CCn1nc(C)cc1C(=O)Nc1nc2cc(C(N)=O)cc(C)c2n1C/C=C/Cn1c2ccc(C(N)=O)cc2c2cnc(-c3cc(C)nn3CC)c(C#N)c21` [Example S26, (E)-5-(4-(5-carbamoyl-2-(1-ethyl-3-methyl-1H-pyrazole-5-carboxamido)-7-methyl-1H-benzo[d]imidazol-1-yl)but-2-en-1-yl)-4-cyano-3-(1-ethyl-3-methyl-1H-pyrazol-5-yl)-5H-pyrido[4,3-b]indole-8-carboxamide] showed an EC50 (THP-1, Table 4A) of 500 to 1000 nM, an EC50 (THP-1, Table 4B) of under 1000 nM and an EC50 (THP-1, Table 4C) of 500 to 1000 nM.

`CCn1nc(C)cc1C(=O)Nc1nc2cc(C(N)=O)cc(OCCCN3CCOCC3)c2n1C/C=C/Cn1c2nc(-c3cc(C)nn3CC)ncc2c2cc(C(N)=O)cc(OCCCOC)c21` [Example S27, (E)-9-(4-(5-carbamoyl-2-(1-ethyl-3-methyl-1H-pyrazole-5-carboxamido)-7-(3-morpholinopropoxy)-1H-benzo [d]imidazol-1-yl)but-2-en-1-yl)-2-(1-ethyl-3-methyl-1H-pyrazol-5-yl)-8-(3-methoxypropoxy)-9H-pyrimido[4,5-b]indole-6-carboxamide] gave an EC50 (THP-1, Table 4A) of at most 100 nM, an EC50 (THP-1, Table 4B) of under 200 nM and an EC50 (THP-1, Table 4C) of at most 50 nM.

In the case of `CCn1nc(C)cc1C(=O)Nc1nc2cc(C(N)=O)cc(O)c2n1C/C=C/Cn1c2nc(-c3cc(C)nn3CC)ncc2c2cc(C(N)=O)cc(OCCCOC)c21` [Example S28, (E)-9-(4-(5-carbamoyl-2-(1-ethyl-3-methyl-1H-pyrazole-5-carboxamido)-7-hydroxy-1H-benzo[d]imidazol-1-yl)but-2-en-1-yl)-2-(1-ethyl-3-methyl-1H-pyrazol-5-yl)-8-(3-methoxypropoxy)-9H-pyrimido[4,5-b]indole-6-carboxamide], the EC50 (THP-1, Table 4A) is reported as at most 100 nM, the EC50 (THP-1, Table 4B) is reported as under 200 nM and the EC50 (THP-1, Table 4C) is reported as at most 50 nM.

For `CCn1nc(C)cc1-c1ncc2c3cc(C(N)=O)cc(OC)c3n(C/C=C/Cn3c4nc(-c5cc(C)nn5CC)ncc4c4cc(C(N)=O)cc(OC)c43)c2n1` [Example S29, (E)-9,9′-(but-2-ene-1,4-diyl)bis(2-(1-ethyl-3-methyl-1H-pyrazol-5-yl)-8-methoxy-9H-pyrimido[4,5-b]inclole-6-carboxamide)], the EC50 (THP-1, Table 4A) was at most 100 nM.

`CCn1nc(C)cc1C(=O)Nc1nc2cc(C(N)=O)cc(C)c2n1C/C=C/Cn1c(NC(=O)c2cc(C)nn2CC)nc2cc(C(N)=O)c3ccoc3c21` [Example S31, (E)-1-(4-(5-carbamoyl-2-(1-ethyl-3-methyl-1H-pyrazole-5-carboxamido)-7-methyl-1H-benzo[d]imidazol-1-yl)but-2-en-1-yl)-2-(1-ethyl-3-methyl-1H-pyrazole-5-carboxamido)-1H-benzofuro[6,7-d]imidazole-5-carboxamide] showed an EC50 (THP-1, Table 4A) of at most 100 nM.

Compound `CCn1nc(C)cc1C(=O)Nc1nc2cc(C(N)=O)cc(OC)c2n1C/C=C/Cn1c(NC(=O)c2cc(C)nn2CC)nc2cc(C(N)=O)cc(OCCCNC(=O)CCN)c21` [Example S32, (E)-7-(3-(3-aminopropanamido)propoxy)-1-(4-(5-carbamoyl-2-(1-ethyl-3-methyl-1H-pyrazole-5-carboxamido)-7-methoxy-1H-benzo[d]imidazol-1-yl)but-2-en-1-yl)-2-(1-ethyl-3-methyl-1H-pyrazole-5-carboxamido)-1H-benzo [d]imidazole-5-carboxamide] has an EC50 (THP-1, Table 4A) of at most 100 nM.

For `CCn1nc(C)cc1C(=O)Nc1nc2cc(C(N)=O)cc(OC)c2n1C/C=C/Cn1c(NC(=O)c2cc(C)nn2CC)nc2cc(C(N)=O)cc(OCCCNC(C)=O)c21` [Example S33, (E)-7-(3-acetamidopropoxy)-1-(4-(5-carbamoyl-2-(1-ethyl-3-methyl-1H-pyrazole-5-carboxamido)-7-methoxy-1H-benzo[d]imidazol-1-yl)but-2-en-1-yl)-2-(1-ethyl-3-methyl-1H-pyrazole-5-carboxamido)-1H-benzo[d]imidazole-5-carboxamide], the EC50 (THP-1, Table 4A) was at most 100 nM.

`CCn1nc(C)cc1C(=O)Nc1nc2cc(C(N)=O)cc(OCCCC#N)c2n1C/C=C/Cn1c2nc(-c3cc(C)nn3CC)ncc2c2cc(C(N)=O)cc(OCCCOC)c21` [Example S34, (E)-9-(4-(5-carbamoyl-7-(3-cyanopropoxy)-2-(1-ethyl-3-methyl-1H-pyrazole-5-carboxamido)-1H-benzo[d]imidazol-1-yl)but-2-en-1-yl)-2-(1-ethyl-3-methyl-1H-pyrazol-5-yl)-8-(3-methoxypropoxy)-9H-pyrimido[4,5-b]indole-6-carboxamide] gave an EC50 (THP-1, Table 4C) of at most 50 nM.

`CCn1nc(C)cc1C(=O)Nc1nc2cc(C(N)=O)cc(OC(C)C)c2n1C/C=C/Cn1c2nc(-c3cc(C)nn3CC)ncc2c2cc(C(N)=O)cc(OCCCOC)c21` [Example S35, (E)-9-(4-(5-carbamoyl-2-(1-ethyl-3-methyl-1H-pyrazole-5-carboxamido)-7-isopropoxy-1H-benzo[d]imidazol-1-yl)but-2-en-1-yl)-2-(1-ethyl-3-methyl-1H-pyrazol-5-yl)-8-(3-methoxypropoxy)-9H-pyrimido[4,5-b]indole-6-carboxamide] showed an EC50 (THP-1, Table 4C) of 50 to 200 nM.
